Reference: ChEMBL document CHEMBL1201862, “PubChem BioAssay data set” (2004)
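Growth conditions: 96-well plates. Treatment: test compound, 48 hours, 5 concentrations. Analysis: linear interpolation between bracketing concentrations; unreached endpoints set to highest concentration. At the GI50, growth is halved.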 Calls of active or inactive are those of the source. No stated cut-off is given here; in the data, active = GI50 up to about 1.1 µM and inactive = higher.

Assays:
Assay in all cases: growth of human tumour cells (NCI), 48 h
786-0 = tested on: 786-0
A498 = tested on: A498
A549 = tested on: A549
ACHN = tested on: ACHN
BT-549 = tested on: BT-549
CAKI-1 = tested on: CAKI-1
CCRF-CEM = tested on: CCRF-CEM
COLO 205 = tested on: COLO 205
DU-145 = tested on: DU-145
EKVX = tested on: EKVX
HCT-116 = tested on: HCT-116
HCT-15 = tested on: HCT-15
HOP-62 = tested on: HOP-62
HOP-92 = tested on: HOP-92
HT-29 = tested on: HT-29
Hs-578T = tested on: Hs-578T
IGROV-1 = tested on: IGROV-1
K562 = tested on: K562
KM12 = tested on: KM12
LOX IMVI = tested on: LOX IMVI
M14 = tested on: M14
MCF7 = tested on: MCF7
MDA-MB-231 = tested on: MDA-MB-231
MDA-MB-435 = tested on: MDA-MB-435
MDA-N = tested on: MDA-N
MOLT-4 = tested on: MOLT-4
Malme-3M = tested on: Malme-3M
NCI-H226 = tested on: NCI-H226
NCI-H23 = tested on: NCI-H23
NCI-H460 = tested on: NCI-H460
NCI-H522 = tested on: NCI-H522
NCI/ADR-RES = tested on: NCI/ADR-RES
OVCAR-3 = tested on: OVCAR-3
OVCAR-4 = tested on: OVCAR-4
OVCAR-5 = tested on: OVCAR-5
OVCAR-8 = tested on: OVCAR-8
PC-3 = tested on: PC-3
RPMI-8226 = tested on: RPMI-8226
RXF 393 = tested on: RXF 393
SF-268 = tested on: SF-268
SF-295 = tested on: SF-295
SF-539 = tested on: SF-539
SK-MEL-28 = tested on: SK-MEL-28
SK-MEL-2 = tested on: SK-MEL-2
SK-MEL-5 = tested on: SK-MEL-5
SK-OV-3 = tested on: SK-OV-3
SN12C = tested on: SN12C
SNB-19 = tested on: SNB-19
SNB-75 = tested on: SNB-75
SR = tested on: SR
SW-620 = tested on: SW-620
T47D = tested on: T47D
TK-10 = tested on: TK-10
U-251 = tested on: U-251
UACC-257 = tested on: UACC-257
UACC-62 = tested on: UACC-62
UO-31 = tested on: UO-31

Measured: GI50

COc1ccc(N2C(=O)C3c4[nH]c5ccccc5c4C4CCC(c5ccccc5)CC4C3C2=O)cc1 (configuration not stated)
36 µM: HCT-15
active: SR 424 nM
inactive: 786-0 7.76 µM | A498 29 µM | A549 26.5 µM | ACHN 12.3 µM | BT-549 31.4 µM | CAKI-1 17.4 µM | CCRF-CEM 6 µM | COLO 205 > 40.4 µM | DU-145 57.3 µM | EKVX 25.1 µM | HCT-116 > 39.8 µM | HOP-62 7.28 µM | HOP-92 16.1 µM | HT-29 > 57.5 µM | Hs-578T 5.74 µM | IGROV-1 30.8 µM | K562 11.2 µM | KM12 > 70.5 µM | LOX IMVI > 32.5 µM | M14 30.5 µM | MCF7 39 µM | MDA-MB-231 10.9 µM | MDA-MB-435 > 50.5 µM | MDA-N 52.8 µM | MOLT-4 26.6 µM | Malme-3M 3.38 µM | NCI-H226 > 45.7 µM | NCI-H23 19.8 µM | NCI-H460 10.3 µM | NCI-H522 10.2 µM | NCI/ADR-RES > 34.2 µM | OVCAR-3 > 64 µM | OVCAR-4 8.87 µM | OVCAR-5 45.1 µM | OVCAR-8 17.3 µM | PC-3 36.2 µM | RPMI-8226 18.5 µM | RXF 393 10.2 µM | SF-268 10.4 µM | SF-295 22.9 µM | SF-539 1.48 µM | SK-MEL-28 > 54.6 µM | SK-MEL-2 23.4 µM | SK-MEL-5 26.1 µM | SK-OV-3 20.2 µM | SN12C 28.5 µM | SNB-19 12.5 µM | SNB-75 6.04 µM | SW-620 > 32.7 µM | T47D > 66.4 µM | TK-10 12.8 µM | U-251 5.92 µM | UACC-257 48.4 µM | UACC-62 24.8 µM | UO-31 46.8 µM
